According to patent US4231936A, “Mitomycin C derivatives” (priority 1977, dated 1980):

Experiments:
[1] = system: Bacillus subtilis ATCC 10707; experiment: Minimum inhibitory concentration (Table I); type: cell-based
Source text: (§1) Comparative data similarly obtained by using mitomycin A, mitomycin C and 7-N-phenyl mitomycin C are also shown in this table

[2] = system: Klebsiella pneumoniae ATCC 10031; experiment: Minimum inhibitory concentration (Table I); type: cell-based
Source text: as §1

[3] = system: Shigella sonnei ATCC 9290; experiment: Minimum inhibitory concentration (Table I); type: cell-based
Source text: as §1

[4] = system: Staphylococcus aureus ATCC 6538P; experiment: Minimum inhibitory concentration (Table I); type: cell-based
Source text: as §1

[5] = Acute toxicity determination, intraperitoneal; set-up: species or system Mice (dd-strain); conditions: mouse, in vivo, ip; dd mice, single i.p., 14 days, Behrens-Karber
Procedure: (§2) The following treatment was performed to make these compounds water-soluble for use in the experiments. A test compound was dissolved in ethanol (about 1000 times by weight) HCO-60, a commercially available surfactant was added in amounts of about 3 times by weight. The mixture was well stirred to dissolve the HCO-60. Ethanol was removed from the solution under reduced pressure by using a rotary evaporator. After this, a test solution was prepared by adding a suitable amount of a physiological saline solution with agitation.
Mice [dd-strain; weight 20±1 g; each group consisted of 5 mice] were used for this experiment. An individual test solution was administered to each mouse by intraperitoneal injection. The test solutions (each 0.5 ml) were prepared by stepwise dilution.

P-388 cells [6] = experiment: Antitumor activity, P-388 leukemia intraperitoneally inoculated, compound i.p. (Example II); type: in vivo, CDF1 mice
Procedure: as §2
Seven-day-old leukemia cells obtained from the ascites of DBA/2 mice inoculated intraperitoneally with 10^6 P-388 cells were used. A cell suspension containing 5×10^6 cells per ml was prepared by using a sterilized physiological saline solution. The test mice (CDF1 mice, 20-25 g) were inoculated with 0.2 ml of the cell suspension containing 1×10^6 cells intraperitoneally. After 24 hours, the mice were divided into groups (each group consisting of 5 mice) and the test solutions were administered intraperitoneally once only. […] In order to evaluate the effects of the test samples, the average survival days were calculated 30 and 60 days after tumor implantation and compared with those of the control group (untreated group). Antitumor activities of the test compounds are indicated by ILS % (increase in life span%) on the basis of the control group.

P-388 cells [7] = experiment: Antitumor effect, P-388 cells intravenously inoculated, compound i.v. (Example III); type: in vivo, Mice; conditions: 30 days
Procedure: as §2
Mice were inoculated intravenously with P-388 cells (10^6 /0.2 ml) in a similar manner to that described above in Example II. […] Untreated mice and mice administered with Tween 80 were used for control purpose.

Sarcoma 180 cells = experiment: Effect on Sarcoma-180, tumor weight ratio (Example IV); type: in vivo, dd-strain mice; conditions: tumor weighed 7 days after inoculation
Procedure: as §2
(§3) Sarcoma 180 cells were inoculated intraperitoneally into dd-strain mice. After 7 days following tumor implantation, ascites tumor cells were obtained from the mice. The cells were washed and a tumor cell suspension containing 5×10^7 cells per ml was prepared with physiological saline solution. 0.1 ml of the thus-prepared suspension containing 5×10^6 cells was inoculated into the left inguinal region of each of the test mice (dd-strain; weight 19±1 g; divided into groups, each group consisting of 5 mice). After 24 hours following the inoculation, the test compounds were administered to the mice individually and intraperitoneally. After 4 days following the inoculation, the peripherical blood of the treated mice was obtained by the puncture of the orbital vein. The number of the leucocytes in the peripheral blood was measured by using Toa Microcell Counter CC-108 (a commercial product of Toa Medical Electronics Co., Ltd., Japan). In order to evaluate the antitumor effects, the tumor was removed 7 days after the inoculation and weighed. Its weight was compared with the average weight of the tumors of the control group (untreated) to give the weight ratios (T/C) shown in Table 5.

[8] = Number of leucocytes in peripheral blood of Sarcoma-180 bearing mice (Example IV); type: in vivo, dd-strain mice; conditions: 4 days after inoculation
Procedure: as §2, §3

Solubility in water = type: physicochemical
[9] = background statement; cited from earlier work
[10] = background statement; cited from earlier work; remark: listed apart in the source
[11] = 5 mg/kg i.p. once, determined after 30 days
[12] = 5 mg/kg i.p. once, determined after 60 days
[13] = 10 mg/kg i.p. once, determined after 30 days
[14] = 10 mg/kg i.p. once, determined after 60 days
[15] = 20 mg/kg i.p. once, determined after 30 days
[16] = 20 mg/kg i.p. once, determined after 60 days
[17] = 30 mg/kg i.p. once, determined after 30 days
[18] = 30 mg/kg i.p. once, determined after 60 days

CO[C@@]12[C@H](COC(N)=O)C3=C(C(=O)C(C)=C(Nc4ccc(O)cc4)C3=O)N1C[C@@H]1N[C@@H]12 [Compound IV, 7-N-(p-hydroxyphenyl)-mitomycin C] showed a minimum inhibitory concentration [1] of 0.049, a minimum inhibitory concentration [2] of 0.391 and a minimum inhibitory concentration [3] of 6.25. The minimum inhibitory concentration [4] was 0.196, the LD50 at 336 h [5] was 34 mg/kg and the Average survival days (P-388 cells [6]; [11]) was 20.4 ± 5.2 days. The “ILS % (increase in life span)” value (P-388 cells [6]; [11]) was 108%, the Number of survivors (P-388 cells [6]; [11]) was 1/5 and the Average survival days (P-388 cells [6]; [12]) was 20.4 ± 5.2 days. For the same compound, the “ILS % (increase in life span)” value (P-388 cells [6]; [12]) was 108%, the Number of survivors (P-388 cells [6]; [12]) was 0/5 and the Average survival days (P-388 cells [6]; [13]) was 23.0 ± 4.5 days. The “ILS % (increase in life span)” value (P-388 cells [6]; [13]) was 135%, the Number of survivors (P-388 cells [6]; [13]) was 1/5 and the Average survival days (P-388 cells [6]; [14]) was 23.4 ± 5.1 days. The “ILS % (increase in life span)” value (P-388 cells [6]; [14]) was 136%, the Number of survivors (P-388 cells [6]; [14]) was 0/5 and the Average survival days (P-388 cells [6]; [15]) was 28.4 ± 3.2 days. For the same compound, the “ILS % (increase in life span)” value (P-388 cells [6]; [15]) was 190%, the Number of survivors (P-388 cells [6]; [15]) was 4/5 and the Average survival days (P-388 cells [6]; [16]) was 47.6 ± 15.8 days. For the same compound, the “ILS % (increase in life span)” value (P-388 cells [6]; [16]) was 386%, the Number of survivors (P-388 cells [6]; [16]) was 3/5 and the Average survival days (P-388 cells [6]; [17]) was 15.4 ± 0.4 days. The “ILS % (increase in life span)” value (P-388 cells [6]; [17]) was 57%, the Number of survivors (P-388 cells [6]; [17]) was 1/5 and the Average survival days (P-388 cells [6]; [18]) was 21.4 ± 20.7 days. For the same compound, the “ILS % (increase in life span)” value (P-388 cells [6]; [18]) was 118%, the Number of survivors (P-388 cells [6]; [18]) was 1/5 and the Average survival days (P-388 cells [7]; 5 mg/kg i.v. once) was 11.4 ± 1.4 days. For the same compound, the ILS % (P-388 cells [7]; 5 mg/kg i.v. once) was 33%, the Average survival days (P-388 cells [7]; 10 mg/kg i.v. once) was 14.0 ± 0 days and the ILS % (P-388 cells [7]; 10 mg/kg i.v. once) was 63%. The Average survival days (P-388 cells [7]; 15 mg/kg i.v. once) was 16.6 ± 1.5 days, the ILS % (P-388 cells [7]; 15 mg/kg i.v. once) was 93% and the Average survival days (P-388 cells [7]; 20 mg/kg i.v. once) was 17.6 ± 4.1 days. For the same compound, the ILS % (P-388 cells [7]; 20 mg/kg i.v. once) was 105%, the Average survival days (P-388 cells [7]; 30 mg/kg i.v. once) was 7.6 ± 0.8 days and the ILS % (P-388 cells [7]; 30 mg/kg i.v. once) was -12%. The “T/C (tumor weight ratio)” value (Sarcoma 180 cells; 5 mg/kg i.p.) was 0.83, the “T/C (tumor weight ratio)” value (Sarcoma 180 cells; 10 mg/kg i.p.) was 0.66 and the “T/C (tumor weight ratio)” value (Sarcoma 180 cells; 20 mg/kg i.p.) was 0.46. For the same compound, the “T/C (tumor weight ratio)” value (Sarcoma 180 cells; 40 mg/kg i.p.) was 0.27, the “Average number of leucocytes” value ([8]; 5 mg/kg i.p.) was 63.2 ± 10.2 × 10^2 /mm^3 and the “Average number of leucocytes” value ([8]; 10 mg/kg i.p.) was 64.0 ± 24.6 × 10^2 /mm^3. The “Average number of leucocytes” value ([8]; 20 mg/kg i.p.) was 39.0 ± 5.6 × 10^2 /mm^3, the “Average number of leucocytes” value ([8]; 40 mg/kg i.p.) was 40.0 ± 15.3 × 10^2 /mm^3 and the solubility in water (Solubility in water) was “low solubility in water”.

Compound CO[C@@]12[C@H](COC(N)=O)C3=C(C(=O)C(C)=C(N)C3=O)N1C[C@@H]1N[C@@H]12 [II, mitomycin C] has a minimum inhibitory concentration [1] of less than 0.025, a minimum inhibitory concentration [2] of less than 0.025 and a minimum inhibitory concentration [3] of 1.563. The minimum inhibitory concentration [4] was 0.049, the antitumor activity [9] was “interesting antitumor activity” and the toxicity [10] was “relatively high toxicity”.
